{"source": "patent US20260217672A1", "about": "“BENZAMIDE COMPOUNDS FOR TREATMENT OF BACTERIAL INFECTIONS” (Hoffmann-La Roche Inc., priority 2022, published 2026)", "key": {"[1]": {"test_system": "Escherichia coli ATCC 25922", "assay": "Minimal Inhibitory Concentration (MIC) broth dilution assay", "assay_type": "cell-based", "conditions": "ATCC25922, 20 h, read-out: MIC Escherichia coli ATCC 25922", "outline": "(§1)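 Broth dilution MIC in cation-adjusted Mueller Hinton broth, final inoculum 5×10^5 CFU/mL, serial 2-fold compound dilutions from DMSO stocks. Plates incubated 20 hours at 35° C. in ambient air; MIC read visually as lowest concentration inhibiting visible growth.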"}, "[2]": {"test_system": "Klebsiella pneumonia ATCC 43816", "assay": "Minimal Inhibitory Concentration (MIC) broth dilution assay", "assay_type": "cell-based", "conditions": "Klebsiella pneumoniae, ATCC43816, 20 h, read-out: MIC Klebsiella pneumoniae ATCC43816", "outline": "as §1"}, "[3]": {"assay": "Human microsome stability assay", "assay_type": "in vitro ADME", "conditions": "1 μM test compound, 0.5 mg/mL liver microsomal protein, NADPH regenerating system, 37° C.; <7 low, 7-16.2 medium, >16.2 high", "protocol": "The human microsomal stability assay is used for early assessment of metabolic stability of a test compound in human liver microsomes.\nHuman liver microsomes (Cat.NO.: 452117, Corning, USA) were pre-incubated with test compound for 10 minutes at 37° C. in 100 mM potassium phosphate buffer, pH 7.4. The reactions were initiated by adding NADPH regenerating system. The final incubation mixtures contained 1 μM test compound, 0.5 mg/mL liver microsomal protein, 1 mM MgCl2, 1 mM NADP, 1 unit/mL isocitric dehydrogenase and 6 mM isocitric acid in 100 mM potassium phosphate buffer, pH 7.4. After incubation times of 0, 3, 6, 9, 15 and 30 minutes at 37° C., 300 μL of cold acetonitrile (including internal standard) was added to 100 μL incubation mixture to terminate the reaction. Following precipitation and centrifugation, the amount of compound remaining in the samples were determined by LC-MS/MS. Controls of no NADPH regenerating system at zero and 30 minutes were also prepared and analyzed. […] (Human microsome clearance: <7 mL/min/kg (low); 7-16.2 mL/min/kg (medium); >16.2 mL/min/kg (high))"}, "LPS synthesis pathway": {"test_system": "LPS synthesis pathway", "conditions": "Bioorganic Chemistry 102 (2020) 104055; cited from earlier work"}, "[4]": {"test_system": "efflux-deficient E. coli strains", "conditions": "Bioorganic Chemistry 102 (2020) 104055; cited from earlier work"}}}
{"compound": "NCCCNCc1ccc(C(=O)Nc2ccc(S(=O)(=O)N3CCN(c4cc(C(F)(F)F)cc(Cl)n4)CC3)cc2)cc1", "note": "[Example 001, 4-[(3-Aminopropylamino)methyl]-N-[4-[4-[6-chloro-4-(trifluoromethyl)-2-pyridyl]piperazin-1-yl]sulfonylphenyl]benzamide]", "values": [{"measurement": "MIC", "setting": "[1]", "result": 0.51, "unit": "µg/mL"}, {"measurement": "MIC", "setting": "[2]", "result": 1.5, "unit": "µg/mL"}, {"measurement": "Clearance of Human microsome", "setting": "[3]", "result": 6.2, "unit": "mL/min/kg"}]}
{"compound": "NCCCNCc1ccc(C(=O)Nc2ccc(S(=O)(=O)N3CCN(c4nccc(C(F)(F)F)n4)CC3)cc2)cc1", "note": "[Example 012, 4-[(3-Aminopropylamino)methyl]-N-[4-[4-[4-(trifluoromethyl)pyrimidin-2-yl]piperazin-1-yl]sulfonylphenyl]benzamide]", "values": [{"measurement": "MIC", "setting": "[1]", "result": 1.8, "unit": "µg/mL"}, {"measurement": "MIC", "setting": "[2]", "result": 3.6, "unit": "µg/mL"}, {"measurement": "Clearance of Human microsome", "setting": "[3]", "result": 6.2, "unit": "mL/min/kg"}]}
{"compound": "N#Cc1cc(Cl)nc(N2CCN(S(=O)(=O)c3ccc(NC(=O)c4cccc(CNCCCN)c4)cc3)CC2)c1", "note": "[Example 020, 3-[(3-Aminopropylamino)methyl]-N-[4-[4-(6-chloro-4-cyano-2-pyridyl)piperazin-1-yl]sulfonylphenyl]benzamide]", "values": [{"measurement": "MIC", "setting": "[1]", "result": 1.2, "unit": "µg/mL"}, {"measurement": "MIC", "setting": "[2]", "result": 2.5, "unit": "µg/mL"}, {"measurement": "Clearance of Human microsome", "setting": "[3]", "result": 8.8, "unit": "mL/min/kg"}]}
{"compound": "O=C(c1cnn2cccnc12)N1CCc2cc(S(=O)(=O)N3CCN(c4cc(C(F)(F)F)cc(Cl)n4)CC3)ccc21", "note": "[Example 034, [5-[4-[6-Chloro-4-(trifluoromethyl)-2-pyridyl]piperazin-1-yl]sulfonylindolin-1-yl]-pyrazolo[1,5-a]pyrimidin-3-yl-methanone]", "values": [{"measurement": "MIC", "setting": "[1]", "result": 0.92, "unit": "µg/mL"}, {"measurement": "MIC", "setting": "[2]", "result": 0.92, "unit": "µg/mL"}, {"measurement": "Clearance of Human microsome", "setting": "[3]", "result": 6.2, "unit": "mL/min/kg"}]}
{"compound": "O=C(C1=NOC2(CCCNC2)C1)N1CCc2cc(S(=O)(=O)N3CCN(c4cc(C(F)(F)F)cc(Cl)n4)CC3)ccc21", "note": "(centres unmarked) [Example 039]", "values": [{"measurement": "Clearance of Human microsome", "setting": "[3]", "result": 9.4, "unit": "mL/min/kg"}]}
{"compound": "O=C(CNCCO)N1CCc2cc(S(=O)(=O)N3CCN(c4cc(C(F)(F)F)cc(Cl)n4)CC3)ccc21", "note": "[Example 041, 1-[5-[4-[6-Chloro-4-(trifluoromethyl)-2-pyridyl]piperazin-1-yl]sulfonylindolin-1-yl]-2-(2-hydroxyethylamino)ethanone]", "values": [{"measurement": "MIC", "setting": "[1]", "result": 1, "unit": "µg/mL"}, {"measurement": "MIC", "setting": "[2]", "result": 8.3, "unit": "µg/mL"}, {"measurement": "Clearance of Human microsome", "setting": "[3]", "result": 6.2, "unit": "mL/min/kg"}]}
{"compound": "CC(=O)Oc1ccc(C(=O)N2CCc3cc(S(=O)(=O)N4CCN(c5cc(C(F)(F)F)cc(Cl)n5)CC4)ccc32)cc1OC(C)=O", "note": "[Example 043, [2-Acetoxy-4-[5-[4-[6-chloro-4-(trifluoromethyl)-2-pyridyl]piperazin-1-yl]sulfonylindoline-1-carbonyl]phenyl]acetate]", "values": [{"measurement": "MIC", "setting": "[1]", "result": 4.2, "unit": "µg/mL"}, {"measurement": "MIC", "setting": "[2]", "result": 2.1, "unit": "µg/mL"}, {"measurement": "Clearance of Human microsome", "setting": "[3]", "result": 6.2, "unit": "mL/min/kg"}]}
{"compound": "NCCCN1CCN(c2cccc(C(=O)Nc3ccc(S(=O)(=O)N4CCN(c5cc(C(F)(F)F)cc(Cl)n5)CC4)cc3)c2)CC1", "note": "[Example 068, 3-[4-(3-Aminopropyl)piperazin-1-yl]-N-[4-[4-[6-chloro-4-(trifluoromethyl)-2-pyridyl]piperazin-1-yl]sulfonylphenyl]benzamide]", "values": [{"measurement": "MIC", "setting": "[1]", "result": 1, "unit": "µg/mL"}, {"measurement": "MIC", "setting": "[2]", "result": 2.1, "unit": "µg/mL"}, {"measurement": "Clearance of Human microsome", "setting": "[3]", "result": 6.2, "unit": "mL/min/kg"}]}
{"compound": "O=C(Nc1ccc(S(=O)(=O)N2CCN(c3cc(C(F)(F)F)cc(Cl)n3)CC2)cc1)c1cccc(CNCCCN2CCNCC2)c1", "note": "[Example 078, N-[4-[4-[6-chloro-4-(trifluoromethyl)-2-pyridyl]piperazin-1-yl]sulfonylphenyl]-3-[(3-piperazin-1-ylpropylamino)methyl]benzamide]", "values": [{"measurement": "MIC", "setting": "[1]", "result": 1.4, "unit": "µg/mL"}, {"measurement": "MIC", "setting": "[2]", "result": 5.7, "unit": "µg/mL"}, {"measurement": "Clearance of Human microsome", "setting": "[3]", "result": 6.2, "unit": "mL/min/kg"}]}
{"compound": "NCC12CC1CN(Cc1cccc(C(=O)Nc3ccc(S(=O)(=O)N4CCN(c5cc(C(F)(F)F)cc(Cl)n5)CC4)cc3)c1)C2", "note": "(centres unmarked) [Example 082, 3-[[1-(Aminomethyl)-3-azabicyclo[3.1.0]hexan-3-yl]methyl]-N-[4-[4-[6-chloro-4-(trifluoromethyl)-2-pyridyl]piperazin-1-yl]sulfonylphenyl]benzamide]", "values": [{"measurement": "MIC", "setting": "[1]", "result": 0.69, "unit": "µg/mL"}, {"measurement": "MIC", "setting": "[2]", "result": 1.4, "unit": "µg/mL"}]}
{"compound": "O=C1NC(CNCc2cccc(C(=O)Nc3ccc(S(=O)(=O)N4CCN(c5cc(C(F)(F)F)cc(Cl)n5)CC4)cc3)c2)CO1", "note": "(centres unmarked) [Example 084, N-[4-[4-[6-chloro-4-(trifluoromethyl)-2-pyridyl]piperazin-1-yl]sulfonylphenyl]-3-[[(2-oxooxazolidin-4-yl)methylamino]methyl]benzamide]", "values": [{"measurement": "MIC", "setting": "[1]", "result": 4.8, "unit": "µg/mL"}, {"measurement": "MIC", "setting": "[2]", "result": 4.8, "unit": "µg/mL"}]}
{"compound": "COc1ccc(CN2CCC3CNCC32)cc1C(=O)Nc1ccc(S(=O)(=O)N2CCN(c3cc(C(F)(F)F)cc(Cl)n3)CC2)cc1", "note": "(centres unmarked) [Example 087, 5-(3,3a,4,5,6,6a-Hexahydro-2H-pyrrolo[3,4-b]pyrrol-1-ylmethyl)-N-[4-[4-[6-chloro-4-(trifluoromethyl)-2-pyridyl]piperazin-1-yl]sulfonylphenyl]-2-methoxy-benzamide]", "values": [{"measurement": "MIC", "setting": "[1]", "result": 1.2, "unit": "µg/mL"}, {"measurement": "MIC", "setting": "[2]", "result": 2.5, "unit": "µg/mL"}]}
{"compound": "NCCCNCc1ccccc1C(=O)Nc1ccc(S(=O)(=O)N2CCN(c3cc(C(F)(F)F)cc(Cl)n3)CC2)cc1", "note": "[Example 088, 2-[(3-Aminopropylamino)methyl]-N-[4-[4-[6-chloro-4-(trifluoromethyl)-2-pyridyl]piperazin-1-yl]sulfonylphenyl]benzamide]", "values": [{"measurement": "MIC", "setting": "[1]", "result": 1.3, "unit": "µg/mL"}, {"measurement": "MIC", "setting": "[2]", "result": 2.6, "unit": "µg/mL"}]}
{"compound": "CC(=O)N1CCc2cc(S(=O)(=O)N3CCN(c4cc(Cl)cc(C(F)(F)F)c4)CC3)ccc21", "note": "[Example F-1, reference compound]", "values": [{"measurement": "MIC", "setting": "[1]", "result": "> 24", "unit": "µg/mL"}, {"measurement": "MIC", "setting": "[2]", "result": "> 24", "unit": "µg/mL"}, {"measurement": "Clearance of Human microsome", "setting": "[3]", "result": 14, "unit": "mL/min/kg"}, {"measurement": "LPS synthesis pathway inhibition activity", "setting": "LPS synthesis pathway", "result": "LPS synthesis pathway inhibition activity"}, {"measurement": "antibiotic activity against efflux-deficient E. coli strains", "setting": "[4]", "result": "antibiotic activity"}]}
